# In patent US20110152249A1, “EVALUATING CENTRAL NERVOUS SYSTEM” (THE GENERAL HOSPITAL CORPORATION, priority 2004, published 2011):
# Read-outs that look alike come from different tables or passages of the source.
# Tests used:
# patient = assay: Medication history of a patient with facial burning and numbness following trigeminal rhizotomy; type: in vivo, human; settings: single patient; facial burning and numbness after rhizotomy for trigeminal neuralgia
# Experimental: In a similar manner as that described above for a healthy volunteer, we examined fMRI activation in a patient who had facial burning and numbness following trigeminal rhizotomy one year previously for trigeminal neuralgia. Medications, including gabapentin and tegretol, had been unhelpful. Careful questioning and psychophysical evaluation was performed. […] They also had decreased warm and cold sensation on the affected side vs. the intact side. They underwent functional neuroimaging for thermal stimuli applied to the V2 and V3 distributions on the right and left. FIGS. 3A-3E show the results of cortical activation from this patient. There was a decrease in activation to a 45° C. stimulus applied to the affected area and an apparent increase in signal for the same stimulus applied to the ipsilateral V3 distribution.
# healthy human volunteers = tested on: healthy human volunteers
# Excerpt: We also investigated the effects of the general anesthetic agent propofol on cerebral structures involved in the processing of vibrotactile information. Using positron emission tomography (PET) and the H(2)(15)O bolus technique, we measured regional distribution of cerebral blood flow (CBF) in eight healthy human volunteers. They were scanned under five different levels of propofol anesthesia. Using a computer-controlled infusion, the following plasma levels of propofol were targeted: Level W (Waking, 0 microg/ml), Level 1 (0.5 microg/ml), Level 2 (1.5 microg/ml), Level 3 (3.5 microg/ml), and Level R (Recovery). At each level of anesthesia, two 3-min scans were acquired with vibrotactile stimulation of the right forearm either on or off. The level of consciousness was evaluated before each scan by the response of the subject to a verbal command.
# opioid naïve individuals = assay: fMRI response to morphine in opioid naïve individuals; type: in vivo, human
# Excerpt: Some of these have an oppositely valenced signal to that observed for aversive painful stimuli. […] This observation is in counter distinction to that observed for cortical activation by painful stimuli (see above).
smiles,measurement,setting,value
NCC1(CC(=O)O)CCCCC1 [gabapentin],clinical benefit of medication,patient,unhelpful
NC(=O)N1c2ccccc2C=Cc2ccccc21 [tegretol],clinical benefit of medication,patient,unhelpful
CC(C)c1cccc(C(C)C)c1O [propofol],level of consciousness,"healthy human volunteers; Level 1, target plasma 0.5 microg/ml",slightly drowsy
same,vibration-induced increases in rCBF in the primary and secondary somatosensory cortex,"healthy human volunteers; Level 1 through 3 (0.5-3.5 microg/ml target plasma), vibrotactile stimulation of right forearm",suppressed vibration-induced increases in rCBF
same,level of consciousness,"healthy human volunteers; Level 2, target plasma 1.5 microg/ml",slurred speech and slow response
same,level of consciousness,"healthy human volunteers; Level 3, target plasma 3.5 microg/ml",not responding at all
same,thalamic rCBF response to vibrotactile stimulation,"healthy human volunteers; Level 3 = 3.5 microg/ml target plasma, volunteers lost consciousness",abolished only at Level 3
same,"rCBF in the thalamus and in visual, parietal, and prefrontal cortical regions","healthy human volunteers; during anesthesia, target plasma levels 0.5, 1.5, 3.5 microg/ml",reduced in a dose-dependent manner rCBF
CN1CC[C@]23c4c5ccc(O)c4O[C@H]2[C@@H](O)C=C[C@H]3[C@H]1C5 [morphine],fMRI activation in subcortical structures,opioid naïve individuals,activation in deep subcortical structures including those involved in reward
same,fMRI signal in the SI cortex,opioid naïve individuals; low-dose morphine,decrease in signal in SI
